Like-named read-outs stand apart in the source and are kept apart here.
Columns and labels:
[1] = target: T1, bovine serum albumin (BSA) (Bos taurus, UniProt P02769); experiment: NP TLC on plates impregnated with bovine serum albumin; format: binding; conditions: for NP (Rf, BSA-impregnated NP plate): Table S3, NP plate impregnated with 2 mg/mL BSA, pH 7.4 mobile phase; for NP (Rf value from the NP plate impregnated with 2 mg/mL BSA solution): Table S8, external group
T1 construct: purchased Sigma Aldrich

[2] = ref DrugBank [7], cited from earlier work
plasma protein = conditions: ref DrugBank [7], cited from earlier work
[3] = HPLC on immobilized artificial membrane column (HPLCIAM); format: physicochemical; conditions: for log k IAM: Table S5, IAM column, pH 7.4; for k IAM: Table S5, retention factor, IAM column, phosphate buffer pH 7.4/acetonitrile 80:20; for kIAM / log kIAM: Table S9, external group
[4] = target: T1, bovine serum albumin (BSA); experiment: RP TLC on plates impregnated with bovine serum albumin; format: binding; conditions: for RP (Rf, BSA-impregnated RP plate): Table S4, RP plate impregnated with 2 mg/mL BSA, pH 7.4 mobile phase; for RP (Rf value from the RP plate impregnated with 2 mg/mL BSA solution): Table S8, external group
[5] = target: T2, human serum albumin (HSA) (Homo sapiens, UniProt P02768)
[6] = NP TLC on non-impregnated control plates; format: physicochemical; conditions: for CNP (Rf, control NP plate): Table S3, non-impregnated NP plate, acetonitrile/acetate buffer pH 7.4/methanol 60:20:20; for CNP (Rf value from the non-impregnated NP plate, control): Table S8, external group
[7] = RP TLC on non-impregnated control plates; format: physicochemical; conditions: for CRP (Rf, control RP plate): Table S4, non-impregnated RP plate, acetonitrile/acetate buffer pH 7.4/methanol 60:20:20; for CRP (Rf value from the non-impregnated RP plate, control): Table S8, external group
[8] = Milk-to-plasma (M/P) drug concentration ratio obtained in vivo, from literature; parameters: species or system human; conditions: Table S1, scale of drug penetration into milk 1-4
[9] = cited from earlier work
[10] = target: T2, human serum albumin (HSA); experiment: in vitro; conditions: immobilized hsa column, pH 7.4
[11] = Table S1, plasma protein binding given as fraction
[12] = Table S5, retention factor, HSA column, pH 7.4, 25 degrees Celsius
[13] = Table S1, milk/plasma drug concentration ratio, in vivo
[14] = human, immobilized hsa column, pH 7.4
[15] = Table S6, external group, coded 1/0
[16] = Table S6, external group (n = 38), given as fraction
[17] = Table S6, external group (n = 38)

T1 sequence (P02769 25-607): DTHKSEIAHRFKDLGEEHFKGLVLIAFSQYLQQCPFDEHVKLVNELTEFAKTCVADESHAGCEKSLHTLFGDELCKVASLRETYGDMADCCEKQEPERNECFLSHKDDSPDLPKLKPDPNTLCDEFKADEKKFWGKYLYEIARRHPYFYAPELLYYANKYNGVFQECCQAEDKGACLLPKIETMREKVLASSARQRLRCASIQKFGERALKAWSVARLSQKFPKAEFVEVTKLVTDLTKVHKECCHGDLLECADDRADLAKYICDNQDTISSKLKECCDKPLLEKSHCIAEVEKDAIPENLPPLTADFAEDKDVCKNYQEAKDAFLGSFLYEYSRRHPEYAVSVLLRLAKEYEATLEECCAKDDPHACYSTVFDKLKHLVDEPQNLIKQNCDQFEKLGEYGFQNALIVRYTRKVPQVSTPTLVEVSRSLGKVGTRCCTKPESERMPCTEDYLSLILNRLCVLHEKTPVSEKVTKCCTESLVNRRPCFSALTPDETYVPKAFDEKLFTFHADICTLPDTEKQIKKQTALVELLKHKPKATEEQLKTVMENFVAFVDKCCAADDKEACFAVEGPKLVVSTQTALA
T2 sequence (P02768 25-609): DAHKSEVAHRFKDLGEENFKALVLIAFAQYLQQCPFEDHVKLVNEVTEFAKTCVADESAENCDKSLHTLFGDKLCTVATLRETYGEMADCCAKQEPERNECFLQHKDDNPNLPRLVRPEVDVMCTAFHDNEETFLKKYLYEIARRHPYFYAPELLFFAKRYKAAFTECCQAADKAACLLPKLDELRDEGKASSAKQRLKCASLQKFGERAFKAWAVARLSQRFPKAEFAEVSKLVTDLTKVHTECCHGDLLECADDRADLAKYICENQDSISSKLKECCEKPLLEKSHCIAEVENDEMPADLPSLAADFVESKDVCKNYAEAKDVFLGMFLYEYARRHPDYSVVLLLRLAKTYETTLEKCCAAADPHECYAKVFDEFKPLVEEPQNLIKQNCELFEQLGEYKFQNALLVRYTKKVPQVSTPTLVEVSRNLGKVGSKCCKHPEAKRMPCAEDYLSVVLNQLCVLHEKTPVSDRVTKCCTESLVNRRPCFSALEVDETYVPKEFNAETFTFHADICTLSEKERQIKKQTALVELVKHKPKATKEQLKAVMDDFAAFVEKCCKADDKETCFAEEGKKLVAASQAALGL

Row | Structure (SMILES) | NP (Rf, BSA-impregnated NP plate) [1] | CNS+/- ([2]; Table S1, coded 1/0) | PB (plasma protein; [11]) | log k IAM [3] | k IAM [3] | RP (Rf, BSA-impregnated RP plate) [4] | k HSA [5, 12] | CNP (Rf, control NP plate) [6] | CRP (Rf, control RP plate) [7] | M/P code [8] | M/P [9, 13] | chromatographic logD [10] | other results
1 | CC1(C)S[C@@H]2[C@H](NC(=O)[C@H](N)c3ccc(O)cc3)C(=O)N2[C@H]1C(=O)O [amoxilcillin] | 0.68 | 0 | 0.2 | -1.32 | 0.05 | 0.98 | 0.94 | 0.68 | 0.99 | 1 (Code 1 corresponds to drugs with an M/P value <0.40—completely safe) | 0.028 |  | log k HSA ([5]; Table S5, HSA, pH 7.4): -0.03
2 | CC(C)NCC(O)COc1ccc(CCOCC2CC2)cc1 (stereo not drawn) [betaxolol] | 0.65 | 0 | 0.5 |  |  | 0.25 | 1.59 | 0.66 | 0.27 | 4 (4 is M/P >1.20—dangerous) | 2.75 |  | log k HSA [5, 14]: 0.20
3 | Cc1ccc(-c2cc(C(F)(F)F)nn2-c2ccc(S(N)(=O)=O)cc2)cc1 [celecoxib] | 0.99 | 1 | 0.97 | 1.70 | 50.01 | 0.75 | 13.42 | 0.98 | 0.75 | 2 (2 corresponds to the range of 0.40–0.80—at the safety limit) | 0.41 |  | log k HSA ([5]; Table S5, HSA, pH 7.4): 1.13
4 | COc1cc(N)c(Cl)cc1C(=O)NC1CCN(CCCOc2ccc(F)cc2)CC1OC (stereo not drawn) [cisapride] | 0.63 | 1 | 0.975 | 1.76 | 57.99 | 0.62 | 4.88 | 0.64 | 0.65 | 1 (Code 1 corresponds to drugs with an M/P value <0.40—completely safe) | 0.045 |  | log k HSA [5, 14]: 0.69
5 | CC[C@H]1OC(=O)[C@H](C)[C@@H](O[C@H]2C[C@@](C)(OC)[C@@H](O)[C@H](C)O2)[C@H](C)[C@@H](O[C@@H]2O[C@H](C)C[C@H](N(C)C)[C@H]2O)[C@](C)(OC)C[C@@H](C)C(=O)[C@H](C)[C@@H](O)[C@]1(C)O [clarithromycin] | 0.99 | 0 |  | -1.02 | 0.10 | 0.78 | 0.82 | 0.99 | 0.83 | 1 (Code 1 corresponds to drugs with an M/P value <0.40—completely safe) | 0.25 |  | log k HSA ([5]; Table S5, HSA, pH 7.4): -0.09
6 | O=C(O)C1N=C(c2ccccc2)c2cc(Cl)ccc2NC1=O (stereo not drawn) [clorazepate] | 0.94 |  | 0.975 | 0.69 | 4.88 | 0.81 |  | 0.94 | 0.81 | 1 (Code 1 corresponds to drugs with an M/P value <0.40—completely safe) | 0.2 | 0.6 | k HSA ([5]; pH 7.4): 3.99
7 | CCC(C)n1ncn(-c2ccc(N3CCN(c4ccc(OCC5COC(Cn6cncn6)(c6ccc(Cl)cc6Cl)O5)cc4)CC3)cc2)c1=O (stereo not drawn) [itraconazole] |  |  |  |  |  |  |  |  |  |  |  | 0.98 | NP (Rf value from the NP plate impregnated with 2 mg/mL BSA solution) [1]: 0.97; CNS+/- [2, 15]: 0; PB (plasma protein; [16]): 1.00; kIAM [3]: 6.15; log kIAM [3]: 0.79; RP (Rf value from the RP plate impregnated with 2 mg/mL BSA solution) [4]: 0.84; kHSA ([5]; Table S9, external group): 9.65; CNP (Rf value from the non-impregnated NP plate, control) [6]: 0.96; CRP (Rf value from the non-impregnated RP plate, control) [7]: 0.86; M/P [9, 17]: 1.14
8 | O=C(c1ccccc1)c1ccc2n1CCC2C(=O)O (stereo not drawn) [ketorolac] |  |  |  |  |  |  |  |  |  |  |  | 0.98 | NP (Rf value from the NP plate impregnated with 2 mg/mL BSA solution) [1]: 0.91; CNS+/- [2, 15]: 1; PB (plasma protein; [16]): 0.99; kIAM [3]: 2.39; log kIAM [3]: 0.38; RP (Rf value from the RP plate impregnated with 2 mg/mL BSA solution) [4]: 0.96; kHSA ([5]; Table S9, external group): 9.65; CNP (Rf value from the non-impregnated NP plate, control) [6]: 0.92; CRP (Rf value from the non-impregnated RP plate, control) [7]: 0.96; M/P [9, 17]: 0.03
9 | CCC[C@@H]1C[C@@H](C(=O)N[C@@H]([C@H]2O[C@H](SC)[C@H](O)[C@@H](O)[C@H]2O)[C@@H](C)O)N(C)C1 [lincomycin] |  |  |  |  |  |  |  |  |  |  |  | -0.08 | NP (Rf value from the NP plate impregnated with 2 mg/mL BSA solution) [1]: 0.91; CNS+/- [2, 15]: 0; PB (plasma protein; [16]): 0.70; kIAM [3]: 3.89; log kIAM [3]: 0.59; kHSA ([5]; Table S9, external group): 0.82; CNP (Rf value from the non-impregnated NP plate, control) [6]: 0.91; M/P [9, 17]: 0.15
10 | Nc1ccc(O)c(C(=O)O)c1 [mesalazine] |  |  |  |  |  |  |  |  |  |  |  | -0.73 | CNS+/- [2, 15]: 0; PB (plasma protein; [16]): 0.43; kIAM [3]: 1.28; log kIAM [3]: 0.11; RP (Rf value from the RP plate impregnated with 2 mg/mL BSA solution) [4]: 0.97; kHSA ([5]; Table S9, external group): 0.18; CRP (Rf value from the non-impregnated RP plate, control) [7]: 0.99; M/P [9, 17]: 2.69
11 | NC(=O)N1c2ccccc2CC(=O)c2ccccc21 [oxcarbamazepine] |  |  |  |  |  |  |  |  |  |  |  |  | NP (Rf value from the NP plate impregnated with 2 mg/mL BSA solution) [1]: 0.90; CNS+/- [2, 15]: 1; PB (plasma protein; [16]): 0.40; kIAM [3]: 2.26; log kIAM [3]: 0.35; RP (Rf value from the RP plate impregnated with 2 mg/mL BSA solution) [4]: 0.91; kHSA ([5]; Table S9, external group): 0.40; log kHSA ([5]; Table S9, external group): -0.40; CNP (Rf value from the non-impregnated NP plate, control) [6]: 0.91; CRP (Rf value from the non-impregnated RP plate, control) [7]: 0.91; M/P [9, 17]: 0.50
12 | Fc1ccc([C@@H]2CCNC[C@H]2COc2ccc3c(c2)OCO3)cc1 [paroxetine] | 0.56 | 1 | 0.94 | 2.06 | 115.77 | 0.67 | 5.96 | 0.55 | 0.60 | 2 (2 corresponds to the range of 0.40–0.80—at the safety limit) | 0.675 |  | log k HSA ([5]; Table S5, HSA, pH 7.4): 0.78
13 | C[C@]12C=CC(=O)C=C1CC[C@@H]1[C@@H]2[C@@H](O)C[C@@]2(C)[C@H]1CC[C@]2(O)C(=O)CO [prednizolone] | 0.94 |  | 0.9 | 0.45 | 2.84 | 0.88 | 0.52 | 0.94 | 0.87 | 1 (Code 1 corresponds to drugs with an M/P value <0.40—completely safe) | 0.13 |  | log k HSA ([5]; Table S5, HSA, pH 7.4): -0.28
14 | CCOC(=O)[C@H](CCc1ccccc1)N[C@@H](C)C(=O)N1Cc2ccccc2C[C@H]1C(=O)O [quinapril] | 0.44 | 0 | 0.97 | 0.09 | 1.22 | 0.56 | 3.1 | 0.44 | 0.57 | 1 (Code 1 corresponds to drugs with an M/P value <0.40—completely safe) | 0.12 |  | log k HSA [5, 14]: 0.49
15 | CN[C@H]1CC[C@@H](c2ccc(Cl)c(Cl)c2)c2ccccc21 [sertraline] | 0.53 |  | 0.98 | 1.63 | 42.89 | 0.48 | 13.19 | 0.53 | 0.49 | 4 (4 is M/P >1.20—dangerous) | 1.85 |  | log k HSA [5, 14]: 1.12
16 | CN1CCN(C(=O)OC2c3nccnc3C(=O)N2c2ccc(Cl)cn2)CC1 (stereo not drawn) [zopiclone] | 0.96 |  | 0.45 | -0.04 | 0.91 | 0.83 |  | 0.96 | 0.84 | 2 (2 corresponds to the range of 0.40–0.80—at the safety limit) | 0.51 | -0.12 | k HSA ([5]; pH 7.4): 0.76
17 | OCCN1CCN(CC/C=C2/c3ccccc3Sc3ccc(Cl)cc32)CC1 [zuclopenthixol] | 0.47 | 1 | 0.985 | 1.69 | 48.73 |  | 16.18 | 0.47 |  | 1 (Code 1 corresponds to drugs with an M/P value <0.40—completely safe) | 0.37 | 1.21 | 
